The subject of one data set is A2AR gene deficient mice. The data set is described as follows: Selectivity control: lung inflammation in A2AR gene deficient mice. The class given is in vivo. Conditions: dosing regimen used to treat WT mice (data not shown). The source says: Thus, the exogenously added selective, synthetic A2AR agonist compensated for the loss of endogenously formed adenosine in oxygenated and inflamed lungs thereby decreasing lung injury and rescuing mice from death.

A further data set deals with endotoxin-treated mice. The data set is described as follows: Lung injury in endotoxin-treated mice. The class given is in vivo.
The subject of data set [1] is oxygenated mice with inflammatory lung injury. The conditions noted are these: mouse, in vivo.
Data set [2] relates to mice with acute inflammatory lung injury. The conditions noted are these: mouse, in vivo.
Where [3] appears, read: i.t. injections, endotoxin-treated mice (data not shown).

Results on two molecules are retold here after patent US8455437B2, “Method to predict and prevent oxygen-induced inflammatory tissue injury” (The United States of America, as Represented by the …, priority 2005, dated 2013).

Take `CCNC(=O)[C@H]1O[C@@H](n2cnc3c(N)nc(NCCc4ccc(CCC(=O)O)cc4)nc32)[C@H](O)[C@@H]1O` [CGS21680]: the “lung inflammation in A2AR gene deficient mice” value with A2AR gene deficient mice is on record as “did not affect”. Further, in the data set on endotoxin-treated mice (histological examination), the “pulmonary PMN sequestration” value is “inhibition”. In addition, in the data set on endotoxin-treated mice (histological examination (not shown)), the “lung tissue damage as assessed by lung injury score” value is “fourfold decrease”. Besides, in the data set with endotoxin-treated mice (setting [3]), the “accumulation of PMN” value is given as “significantly decreased”, the lung gas exchange result was “improved”, the lung injury entry is recorded as “significantly inhibited” and the lung vascular permeability entry is on record as “less pronounced increases”. In addition, the “production of reactive oxygen metabolites” value in the data set with endotoxin-treated mice (setting [3]) was “reduced”. Further, the “number of deaths (oxygenation-induced death)” value in data set [1] is “dramatically reduced”.

As for `O=O` [oxygen], in data set [2], the BAL fluid protein result was “small accumulation”, the “alveolo-capillary permeability (protein recovered by broncho-alveolar lavage)” value is on record as “much more pronounced increase”, the “arterial pO2 after return to normal atmosphere” value is recorded as “decrease” and the “death in short-term assays” value is given as “did not result in death”. In data set [2], the “deaths of mice with inflamed lungs versus 21% ambient oxygen” value is “Five times more”; the “inflammatory lung injury (exudate protein in alveolar spaces, arterial blood oxygen tension)” value was “exacerbation”; the “mice that died during 15 min equilibration period in normal atmosphere” value is on record as “three out of seven”.
